# From US6737383B1, “Herbicidal oxadiazolidines” (priority 1999, dated 2004)
# Experiments:
# bedstraw = assay: Test B pre/postemergence bedstraw; format: in vivo, Galium aparine; details: for Bedstraw plant response rating: Postemergence; for Plant response rating, Bedstraw: Preemergence
# Outline: (§1)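 Response is a visual 0-to-10 score relative to untreated plants, where 0 means no effect and 10 means complete control, taken twelve to sixteen days after application. Treatments went onto soil at planting and onto foliage of 1- to 4-leaf plants, using a surfactant-containing non-phytotoxic solvent.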
# blackgrass = assay: Test B pre/postemergence blackgrass; format: in vivo, Alopecurus myosuroides
# Outline: as §1
# surinam grass = assay: Test B pre/postemergence surinam grass; format: in vivo, Brachiaria decumbens
# Outline: as §1
# cocklebur = assay: Test B pre/postemergence cocklebur; format: in vivo, Xanthium strumarium
# Outline: as §1
# giant foxtail = assay: Test B pre/postemergence giant foxtail; format: in vivo, Setaria faberii
# Outline: as §1
# morningglory = assay: Test B pre/postemergence morningglory; format: in vivo, Ipomoea hederacea; details: for Plant response rating, Morningglory: scale of 0 to 10 where 0 is no effect and 10 is complete control
# Outline: as §1
# pigweed = assay: Test B pre/postemergence pigweed; format: in vivo, Amaranthus retroflexus; details: for Plant response rating, Redroot pigweed: scale of 0 to 10 where 0 is no effect and 10 is complete control
# Outline: as §1
# rape = assay: Test B pre/postemergence rape; format: in vivo, Brassica napus; details: for Plant response rating, Rape: scale of 0 to 10 where 0 is no effect and 10 is complete control
# Outline: as §1
# soybean = assay: Test B pre/postemergence soybean; format: in vivo, Glycine max; details: for Plant response rating, Soybean: scale of 0 to 10 where 0 is no effect and 10 is complete control
# Outline: as §1
# velvetleaf = assay: Test B pre/postemergence velvetleaf; format: in vivo, Abutilon theophrasti; details: for Plant response rating, Velvetleaf: scale of 0 to 10 where 0 is no effect and 10 is complete control
# Outline: as §1
# wheat = assay: Test B pre/postemergence wheat; format: in vivo, Triticum aestivum; details: for Plant response rating, Wheat: scale of 0 to 10 where 0 is no effect and 10 is complete control
# Outline: as §1
# wild oat = assay: Test B pre/postemergence wild oat; format: in vivo, Avena fatua; details: for Plant response rating, Wild oats: scale of 0 to 10 where 0 is no effect and 10 is complete control
# Outline: as §1
# purple nutsedge = assay: Test B pre/postemergence purple nutsedge; format: in vivo, Cyperus rotundus; details: for Plant response rating, Nutsedge: scale of 0 to 10 where 0 is no effect and 10 is complete control
# Outline: as §1
# smallflower flatsedge = assay: Test B flood test smallflower flatsedge; format: in vivo, Cyperus difformis
# Outline: (§2)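 Flood test on plants grown to the 2-leaf stage; treated plants kept in greenhouse twelve to sixteen days, then visually rated against controls on a 0 (no effect) to 10 (complete control) scale.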
# duck salad = assay: Test B flood test duck salad; format: in vivo, Heteranthera limosa
# Outline: as §2
# bamyardgrass = assay: Test B flood test barnyardgrass; format: in vivo, Echinochloa crus-galli
# Outline: as §2
# [1] = Postemergence, Rate 250 g/ha, scale 0 to 10
# [2] = Postemergence, Rate 500 g/ha, scale of 0 to 10 where 0 is no effect and 10 is complete control
# [3] = Preemergence, Rate 62 g/ha, scale of 0 to 10 where 0 is no effect and 10 is complete control
# [4] = Preemergence, Rate 125 g/ha, scale of 0 to 10 where 0 is no effect and 10 is complete control
# [5] = Preemergence, Rate 250 g/ha, scale 0 to 10, 0 is no effect, 10 is complete control
# [6] = Preemergence, Rate 500 g/ha, scale 0 to 10, 0 is no effect, 10 is complete control
# [7] = Rate 62 g/ha, Postemergence, scale 0 to 10, 0 no effect, 10 complete control
# [8] = Rate 125 g/ha, Postemergence, scale 0 to 10, 0 is no effect, 10 is complete control
# [9] = Rate 62 g/ha, flood test species, Pre-emergence, visual evaluation after twelve to sixteen days
# [10] = Rate 125 g/ha, under heading Pre-emergence, flood test species, visual evaluation after twelve to sixteen days
# [11] = Rate 250 g/ha, Pre-emergence (flood test species), scale 0 to 10, 0 is no effect, 10 is complete control
# [12] = Rate 500 g/ha, Pre-emergence, flood test species, scale 0 to 10 (0 no effect, 10 complete control)
smiles,measurement,setting,value
CC[Si](C)(C)Cn1c(=O)on(C(=O)N(c2ccc(F)cc2)C(C)C)c1=O [Compound 459],Bedstraw plant response rating,"bedstraw; Rate 250 g/ha, scale 0 to 10",6
same,Bedstraw plant response rating,"bedstraw; Rate 500 g/ha, scale of 0 to 10 where 0 is no effect and 10 is complete control",8
same,"Plant response rating, Bedstraw","bedstraw; Rate 62 g/ha, scale of 0 to 10 where 0 is no effect and 10 is complete control",0
same,"Plant response rating, Bedstraw","bedstraw; Rate 125 g/ha, scale of 0 to 10 where 0 is no effect and 10 is complete control",0
same,Blackgrass plant response rating,blackgrass; [1],8
same,Blackgrass plant response rating,blackgrass; [2],8
same,"Plant response rating, Blackgrass",blackgrass; [3],0
same,"Plant response rating, Blackgrass",blackgrass; [4],0
same,Blackgrass plant response rating,blackgrass; [5],5
same,Blackgrass plant response rating,blackgrass; [6],6
same,Blackgrass plant response rating,blackgrass; [7],0
same,Blackgrass plant response rating,blackgrass; [8],1
same,B. signalgrass plant response rating,"surinam grass; Postemergence, Rate 250 g/ha, scale 0 to 10, 0 no effect, 10 complete control",0
same,B. signalgrass plant response rating,surinam grass; [2],0
same,"Plant response rating, B. signalgrass",surinam grass; [3],0
same,"Plant response rating, B. signalgrass",surinam grass; [4],0
same,B. signalgrass plant response rating,surinam grass; [5],1
same,B. signalgrass plant response rating,surinam grass; [6],1
same,B. signalgrass plant response rating,surinam grass; [7],0
same,B. signalgrass plant response rating,surinam grass; [8],0
same,Cocklebur plant response rating,cocklebur; [1],0
same,Cocklebur plant response rating,cocklebur; [2],0
same,"Plant response rating, Cocklebur",cocklebur; [3],0
same,"Plant response rating, Cocklebur",cocklebur; [4],0
same,Cocklebur plant response rating,cocklebur; [5],0
same,Cocklebur plant response rating,cocklebur; [6],0
same,Cocklebur plant response rating,cocklebur; [7],0
same,Cocklebur plant response rating,cocklebur; [8],0
same,Giant foxtail plant response rating,giant foxtail; [1],2
same,Giant foxtail plant response rating,giant foxtail; [2],5
same,"Plant response rating, Giant foxtail",giant foxtail; [3],8
same,"Plant response rating, Giant foxtail",giant foxtail; [4],9
same,Giant foxtail plant response rating,giant foxtail; [5],10
same,Giant foxtail plant response rating,giant foxtail; [6],10
same,Giant foxtail plant response rating,giant foxtail; [7],0
same,Giant foxtail plant response rating,giant foxtail; [8],0
same,"Plant response rating, Morningglory","morningglory; Preemergence, Rate 62 g/ha",0
same,"Plant response rating, Morningglory","morningglory; Preemergence, Rate 125 g/ha",0
same,Morningglory plant response rating,morningglory; [5],0
same,Morningglory plant response rating,morningglory; [6],0
same,Morningglory plant response rating,morningglory; [7],6
same,Morningglory plant response rating,morningglory; [8],8
same,Redroot pigweed plant response rating,pigweed; [1],0
same,"Plant response rating, Redroot pigweed","pigweed; Preemergence, Rate 62 g/ha",0
same,"Plant response rating, Redroot pigweed","pigweed; Preemergence, Rate 125 g/ha",0
same,Redroot pigweed plant response rating,pigweed; [5],4
same,Redroot pigweed plant response rating,pigweed; [6],7
same,Redroot pigweed plant response rating,pigweed; [7],0
same,Redroot pigweed plant response rating,pigweed; [8],0
same,Rape plant response rating,rape; [1],0
same,"Plant response rating, Rape","rape; Preemergence, Rate 62 g/ha",0
same,"Plant response rating, Rape","rape; Preemergence, Rate 125 g/ha",0
same,Rape plant response rating,rape; [5],0
same,Rape plant response rating,rape; [6],0
same,Rape plant response rating,rape; [7],0
same,Rape plant response rating,rape; [8],0
same,Soybean plant response rating,soybean; [1],6
same,"Plant response rating, Soybean","soybean; Preemergence, Rate 62 g/ha",0
same,"Plant response rating, Soybean","soybean; Preemergence, Rate 125 g/ha",0
same,Soybean plant response rating,soybean; [5],0
same,Soybean plant response rating,soybean; [6],0
same,Soybean plant response rating,soybean; [7],3
same,Soybean plant response rating,soybean; [8],3
same,Velvetleaf plant response rating,velvetleaf; [1],0
same,"Plant response rating, Velvetleaf","velvetleaf; Preemergence, Rate 62 g/ha",0
same,"Plant response rating, Velvetleaf","velvetleaf; Preemergence, Rate 125 g/ha",0
same,Velvetleaf plant response rating,velvetleaf; [5],0
same,Velvetleaf plant response rating,velvetleaf; [6],0
same,Velvetleaf plant response rating,velvetleaf; [7],0
same,Velvetleaf plant response rating,velvetleaf; [8],0
same,Wheat plant response rating,wheat; [1],0
same,"Plant response rating, Wheat","wheat; Preemergence, Rate 62 g/ha",0
same,"Plant response rating, Wheat","wheat; Preemergence, Rate 125 g/ha",0
same,Wheat plant response rating,wheat; [5],0
same,Wheat plant response rating,wheat; [6],0
same,Wheat plant response rating,wheat; [7],0
same,Wheat plant response rating,wheat; [8],0
same,Wild oats plant response rating,wild oat; [1],0
same,"Plant response rating, Wild oats","wild oat; Preemergence, Rate 62 g/ha",0
same,"Plant response rating, Wild oats","wild oat; Preemergence, Rate 125 g/ha",0
same,Wild oats plant response rating,wild oat; [5],0
same,Wild oats plant response rating,wild oat; [6],0
same,Wild oats plant response rating,wild oat; [7],0
same,Wild oats plant response rating,wild oat; [8],0
same,Nutsedge plant response rating,purple nutsedge; [1],0
same,"Plant response rating, Nutsedge","purple nutsedge; Preemergence, Rate 62 g/ha",0
same,"Plant response rating, Nutsedge","purple nutsedge; Preemergence, Rate 125 g/ha",0
same,Nutsedge plant response rating,purple nutsedge; [5],0
same,Nutsedge plant response rating,purple nutsedge; [6],0
same,Nutsedge plant response rating,purple nutsedge; [7],0
same,Nutsedge plant response rating,purple nutsedge; [8],0
same,"Plant response rating, S. Flatsedge (0 to 10 scale, 0 is no effect, 10 is complete control)",smallflower flatsedge; [9],0
same,"S. Flatsedge plant response rating (0 to 10 scale, 0 is no effect, 10 is complete control)",smallflower flatsedge; [10],0
same,S. Flatsedge plant response rating,smallflower flatsedge; [11],0
same,S. Flatsedge plant response rating,smallflower flatsedge; [12],0
same,"Plant response rating, Ducksalad (0 to 10 scale, 0 is no effect, 10 is complete control)",duck salad; [9],0
same,"Ducksalad plant response rating (0 to 10 scale, 0 is no effect, 10 is complete control)",duck salad; [10],0
same,Ducksalad plant response rating,duck salad; [11],0
same,Ducksalad plant response rating,duck salad; [12],0
same,"Plant response rating, Barnyardgrass (0 to 10 scale, 0 is no effect, 10 is complete control)",bamyardgrass; [9],0
same,"Barnyardgrass plant response rating (0 to 10 scale, 0 is no effect, 10 is complete control)",bamyardgrass; [10],0
same,Barnyardgrass plant response rating,bamyardgrass; [11],0
same,Barnyardgrass plant response rating,bamyardgrass; [12],0
